The values that follow come from patent publication US8318223B2, “Method for producing modified milk” (Ajinomoto Co., Inc., priority 2008, dated 2012).

Where two headings read alike, the source gives them in different places.

The assay deals with T1, PG (Chryseobacterium proteolyticum, UniProt Q9AQQ8).
T1 construct: made in house
T1 sequence (Q9AQQ8 136-320): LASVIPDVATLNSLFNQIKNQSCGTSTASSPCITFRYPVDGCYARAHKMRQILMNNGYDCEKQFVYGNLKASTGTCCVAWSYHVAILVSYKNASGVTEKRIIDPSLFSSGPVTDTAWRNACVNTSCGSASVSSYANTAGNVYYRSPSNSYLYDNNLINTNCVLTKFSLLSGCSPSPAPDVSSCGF
In kind it is biochemical. The method, then:
Calcium chelating materials were added to LTLT sterilized milk (66° C., 30 minutes: Takanashi low temperature sterilized milk) properly. The reactivity of PG with each milk sample was measured as follows. To each milk sample was added 0.4 U/ml (corresponding to about 12 u per 1 g of milk protein) of PG (a purified product described in Experimental Example 1) and incubated at 50° C. for 60 minutes. The enzyme reaction was ceased by adding 12% TCA the amount of which is the same as the reacting solution and centrifuged (12,000 rpm, 5° C., 5 minutes) to measure the amount of ammonium in the supernatant using an ammonium quantitative measurement kit, F-kit (Roche).
Alkaline materials were added to LTLT sterilized milk (66° C., 30 minutes: Takanashi low temperature sterilized milk) properly so as to adjust the pH 7 to 8.4. The reactivity of PG with each milk sample was measured as in Example 1.
Glutathione or cysteine (Nacalai Tesque, Inc.) as a thiol-type reducing agent was added to LTLT sterilized milk (66° C., 30 minutes: Takanashi low temperature sterilized milk) properly. The reactivity of PG to each milk was measured as in Example 1. […] By the same manner, the reactivity of PG to milk was measured by adding glutathione yeast extract (AROMILD UG8, Kohjin Co., Ltd.) to milk at different concentrations.

Where [1] appears, read: alkaline additive 0.20% in LTLT milk, control (pH 6.67) 13.6.
Where [2] appears, read: alkaline additive […] in LTLT milk, control (pH 6.67) 13.6.
Where [3] appears, read: additive 0.4% in LTLT milk, PG 0.4 U/ml, 50° C., 60 minutes, control 22.1.
Where [4] appears, read: additive 0.5% in LTLT milk, PG 0.4 U/ml, 50° C., 60 minutes, control 22.1.
Where [5] appears, read: alkaline additive 0.25% in LTLT milk, control (pH 6.67) 13.6.
[6] abbreviates: alkaline additive 0.30% in LTLT milk, control (pH 6.67) 13.6.

With `O=C([O-])[O-].[Na+].[Na+]` [Sodium carbonate], the “PG reactivity (%)” value (alkaline additive 0.10% in LTLT milk, control (pH 6.67) 13.6) was 61.7%; the “PG reactivity (%)” value under setting [1] is 65%; the “PG reactivity (%)” value under setting [2] amounted to 72.7%.

As to sodium γ-polyglutamate [γ-PGA], the “PG reactivity (%)” value under setting [3] came to 49.8%; the “PG reactivity (%)” value under setting [4] is on record as 58.1%; the “PG reactivity (%)” value (additive 0.75% in LTLT milk, PG 0.4 U/ml, 50° C., 60 minutes, control 22.1) is 79.2%; the “PG reactivity (%)” value (additive 1% in LTLT milk, PG 0.4 U/ml, 50° C., 60 minutes, control 22.1) was 96.1%.

`O=C([O-])CC(O)(CC(=O)[O-])C(=O)[O-].[Na+].[Na+].[Na+]` [Trisodium citrate]: the “PG reactivity (%)” value is recorded as 40.5% (additive 0.2% in LTLT milk, PG 0.4 U/ml, 50° C., 60 minutes, control 22.1); 47.3% under setting [3]; 42.8% under setting [4].

Take `O=P([O-])([O-])[O-].[Na+].[Na+].[Na+]` [Trisodium phosphate]: the “PG reactivity (%)” value turned out to be 65.8% under setting [1], 72% under setting [5] and 54.9% under setting [2].

As for `O=C([O-])O.[Na+]` [Sodium hydrogen carbonate], the “PG reactivity (%)” value was determined as 58.1% under setting [6] and 57.8% (alkaline additive 1.00% in LTLT milk, control (pH 6.67) 13.6).

Consider `O=C([O-])CN(CCN(CC(=O)[O-])CC(=O)[O-])CC(=O)[O-].[Na+].[Na+].[Na+].[Na+]` [EDTA, tetrasodium ethylenediaminetetraacetate], for which the “PG reactivity (%)” value (additive 20 mM in LTLT milk, PG 0.4 U/ml, 50° C., 60 minutes, control 22.1) was found to be 55.9%.

Regarding `O=C([O-])[O-].[K+].[K+]` [Potassium carbonate], for the setting “alkaline additive 0.13% in LTLT milk, control (pH 6.67) 13.6”, the “PG reactivity (%)” value came out at 62.5%.

`N=C(N)NCCC[C@H](N)C(=O)O` [Arg (amino acid), arginine]: the “PG reactivity (%)” value is, setting by setting: under setting [1], 54.1%; under setting [5], 67%; under setting [6], 76.2%; (alkaline additive 0.40% in LTLT milk, control (pH 6.67) 13.6) 75%.
